According to patent US20230085307A1, “PYRIDAZINONE COMPOUND AND HERBICIDE” (NISSAN CHEMICAL CORPORATION, priority 2019, published 2023):

What was measured:
blackgrass [1] = test: Test Example 5: herbicidal effect by foliage application, plastic box (Table 20, symbol J); assay type: in vivo, blackgrass (Alopecurus myosuroides); conditions: amount of applied herbicide 320 g/ha; foliage application after 14-day growth; evaluated three weeks after application
Procedure, shortened: (§1)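 Plants sown in sterilized diluvial soil and grown 14 days in a greenhouse at 25° C to 30° C, then sprayed on the foliage with the compound's emulsion diluted in water to a predetermined herbicide amount. Injury to weeds and crops scored three weeks after application on a visual rating scale.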

green foxtail [2] = test: Test Example 5: herbicidal effect by foliage application, plastic box (Table 20, symbol G); assay type: in vivo, green foxtail (Setaria viridis); conditions: amount of applied herbicide 320 g/ha; foliage application after 14-day growth; evaluated three weeks after application
Procedure, shortened: as §1

windgrass [3] = test: Test Example 5: herbicidal effect by foliage application, plastic box (Table 20, symbol L); assay type: in vivo, windgrass (Apera spica-venti); conditions: amount of applied herbicide 320 g/ha; foliage application after 14-day growth; evaluated three weeks after application
Procedure, shortened: as §1

barnyard grass [4] = test: Test Example 3: herbicidal effect by foliage application, Wagner pot (Table 18, symbol H); assay type: in vivo, barnyard grass (Echinochloa crus-galli); conditions: 320 g/ha
Procedure, shortened: (§2)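 Plants were sown in alluvial soil held under 0.1–0.5 cm standing water and grown 14 days in a greenhouse at 25–30 °C. An emulsifiable formulation, water-diluted to the set dose, was then sprayed onto the foliage, and effects were scored three weeks later using previously defined criteria.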

Italian ryegrass [5] = test: Test Example 4: herbicidal effect by soil treatment (Table 19, symbol K); assay type: in vivo, Italian ryegrass (Lolium multiflorum); conditions: amount of applied herbicide 320 g/ha
Procedure, shortened: (§3)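 Seeds were sown in sterilized diluvial soil and covered with about 1.5 cm of soil. An emulsion formulation diluted with water to a predetermined herbicide amount was sprayed evenly onto the soil surface. Plants grew in a greenhouse at 25° C. to 30° C., and the effect was scored three weeks after application using criteria from an earlier test.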

chickweed [6] = test: Test Example 5: herbicidal effect by foliage application, plastic box (Table 20, symbol P); assay type: in vivo, common chickweed (Stellaria media); conditions: amount of applied herbicide 320 g/ha; foliage application after 14-day growth; evaluated three weeks after application
Procedure, shortened: as §1

persian speedwell [7] = test: Test Example 5: herbicidal effect by foliage application, plastic box (Table 20, symbol R); assay type: in vivo, Persian speedwell (Veronica persica); conditions: amount of applied herbicide 320 g/ha; foliage application after 14-day growth; evaluated three weeks after application
Procedure, shortened: as §1

persian speedwell [8] = test: Test Example 4: herbicidal effect by soil treatment (Table 19, symbol R); assay type: in vivo, Persian speedwell (Veronica persica); conditions: amount of applied herbicide 320 g/ha
Procedure, shortened: as §3

velvetleaf [9] = test: Test Example 5: herbicidal effect by foliage application, plastic box (Table 20, symbol M); assay type: in vivo, velvetleaf (Abutilon theophrasti); conditions: amount of applied herbicide 320 g/ha; foliage application after 14-day growth; evaluated three weeks after application
Procedure, shortened: as §1

Italian ryegrass [10] = test: Test Example 5: herbicidal effect by foliage application, plastic box (Table 20, symbol K); assay type: in vivo, Italian ryegrass (Lolium multiflorum); conditions: amount of applied herbicide 320 g/ha; foliage application after 14-day growth; evaluated three weeks after application
Procedure, shortened: as §1

rice flat sedge = test: Test Example 3: herbicidal effect by foliage application, Wagner pot (Table 18, symbol E); assay type: in vivo, rice flat sedge (Cyperus iria); conditions: 320 g/ha
Procedure, shortened: as §2

green foxtail [11] = test: Test Example 4: herbicidal effect by soil treatment (Table 19, symbol G); assay type: in vivo, green foxtail (Setaria viridis); conditions: amount of applied herbicide 320 g/ha
Procedure, shortened: as §3

southern crabgrass [12] = test: Test Example 4: herbicidal effect by soil treatment (Table 19, symbol F); assay type: in vivo, southern crabgrass (Digitaria ciliaris); conditions: amount of applied herbicide 320 g/ha
Procedure, shortened: as §3

wild oat [13] = test: Test Example 4: herbicidal effect by soil treatment (Table 19, symbol I); assay type: in vivo, wild oat (Avena fatua); conditions: amount of applied herbicide 320 g/ha
Procedure, shortened: as §3

barnyard grass [14] = test: Test Example 4: herbicidal effect by soil treatment (Table 19, symbol H); assay type: in vivo, barnyard grass (Echinochloa crus-galli); conditions: amount of applied herbicide 320 g/ha
Procedure, shortened: as §3

lambsquarters [15] = test: Test Example 5: herbicidal effect by foliage application, plastic box (Table 20, symbol O); assay type: in vivo, lambsquarters (Chenopodium album); conditions: amount of applied herbicide 320 g/ha; foliage application after 14-day growth; evaluated three weeks after application
Procedure, shortened: as §1

late watergrass = test: Test Example 1: herbicidal activity, application before weed generation under submerged conditions (Table 16, symbol A); assay type: in vivo, late watergrass (Echinochloa oryzicola); conditions: amount of applied herbicide 320 g/ha
Procedure, shortened: (§4)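 Submerged Wagner pots (alluvial soil, 4 cm water) sown with weed seeds and planted with 2.5-leaf rice seedlings; emulsifiable concentrate diluted in water applied to water surface on sowing day. Held in greenhouse at 25-30 °C; injury scored 0-5 by herbicidal rate after three weeks.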

southern crabgrass [16] = test: Test Example 5: herbicidal effect by foliage application, plastic box (Table 20, symbol F); assay type: in vivo, southern crabgrass (Digitaria ciliaris); conditions: amount of applied herbicide 320 g/ha; foliage application after 14-day growth; evaluated three weeks after application
Procedure, shortened: as §1

Chinese sprangletop = test: Test Example 3: herbicidal effect by foliage application, Wagner pot (Table 18, symbol D); assay type: in vivo, chinese sprangletop (Leptochloa chinensis); conditions: 320 g/ha
Procedure, shortened: as §2

blackgrass [17] = test: Test Example 4: herbicidal effect by soil treatment (Table 19, symbol J); assay type: in vivo, blackgrass (Alopecurus myosuroides); conditions: amount of applied herbicide 320 g/ha
Procedure, shortened: as §3

redroot pigweed [18] = test: Test Example 5: herbicidal effect by foliage application, plastic box (Table 20, symbol N); assay type: in vivo, redroot pigweed (Amaranthus retroflexus); conditions: amount of applied herbicide 320 g/ha; foliage application after 14-day growth; evaluated three weeks after application
Procedure, shortened: as §1

barnyard grass [19] = test: Test Example 5: herbicidal effect by foliage application, plastic box (Table 20, symbol H); assay type: in vivo, barnyard grass (Echinochloa crus-galli); conditions: amount of applied herbicide 320 g/ha; foliage application after 14-day growth; evaluated three weeks after application
Procedure, shortened: as §1

chickweed [20] = test: Test Example 4: herbicidal effect by soil treatment (Table 19, symbol P); assay type: in vivo, common chickweed (Stellaria media); conditions: amount of applied herbicide 320 g/ha
Procedure, shortened: as §3

Japanese bulrush = test: Test Example 1: herbicidal activity, application before weed generation under submerged conditions (Table 16, symbol B); assay type: in vivo, Japanese bulrush (Schoenoplectus juncoides); conditions: amount of applied herbicide 320 g/ha
Procedure, shortened: as §4

wild oat [21] = test: Test Example 5: herbicidal effect by foliage application, plastic box (Table 20, symbol I); assay type: in vivo, wild oat (Avena fatua); conditions: amount of applied herbicide 320 g/ha; foliage application after 14-day growth; evaluated three weeks after application
Procedure, shortened: as §1

oval-leafed pondweed = test: Test Example 1: herbicidal activity, application before weed generation under submerged conditions (Table 16, symbol C); assay type: in vivo, oval-leafed pondweed (Monochoria vaginalis); conditions: amount of applied herbicide 320 g/ha
Procedure, shortened: as §4

windgrass [22] = test: Test Example 4: herbicidal effect by soil treatment (Table 19, symbol L); assay type: in vivo, windgrass (Apera spica-venti); conditions: amount of applied herbicide 320 g/ha
Procedure, shortened: as §3

velvetleaf [23] = test: Test Example 4: herbicidal effect by soil treatment (Table 19, symbol M); assay type: in vivo, velvetleaf (Abutilon theophrasti); conditions: amount of applied herbicide 320 g/ha
Procedure, shortened: as §3

lambsquarters [24] = test: Test Example 4: herbicidal effect by soil treatment (Table 19, symbol O); assay type: in vivo, lambsquarters (Chenopodium album); conditions: amount of applied herbicide 320 g/ha
Procedure, shortened: as §3

redroot pigweed [25] = test: Test Example 4: herbicidal effect by soil treatment (Table 19, symbol N); assay type: in vivo, redroot pigweed (Amaranthus retroflexus); conditions: amount of applied herbicide 320 g/ha
Procedure, shortened: as §3

Row | SMILES | Herbicidal effect by foliage application, J: blackgrass (blackgrass [1]) | Herbicidal effect by foliage application, G: green foxtail (green foxtail [2]) | Herbicidal effect by foliage application, L: windgrass (windgrass [3]) | herbicidal effect on barnyard grass (H) (barnyard grass [4]) | Herbicidal effect by foliage application, P: chickweed (chickweed [6]) | Herbicidal effect by foliage application, R: persian speedwell (persian speedwell [7]) | Herbicidal effect by foliage application, M: velvetleaf (velvetleaf [9]) | Herbicidal effect by foliage application, K: Italian ryegrass (Italian ryegrass [10]) | herbicidal effect on rice flat sedge (E) (rice flat sedge) | Herbicidal effect by foliage application, O: lambsquarters (lambsquarters [15]) | Herbicidal effect, A: late watergrass (late watergrass) | Herbicidal effect by foliage application, F: southern crabgrass (southern crabgrass [16]) | herbicidal effect on Chinese sprangletop (D) (Chinese sprangletop) | Herbicidal effect by foliage application, N: redroot pigweed (redroot pigweed [18]) | Herbicidal effect by foliage application, H: barnyard grass (barnyard grass [19]) | Herbicidal effect, B: Japanese bulrush (Japanese bulrush) | Herbicidal effect by foliage application, I: wild oat (wild oat [21]) | Herbicidal effect, C: oval-leafed pondweed (oval-leafed pondweed) | also measured
1 | CCOc1cccc(-c2sc3c(C)cccc3c2-c2c(O)c(C)nn(C)c2=O)c1 [4-114] | 1 (Herbicidal rate of 5% or more and less than 20%) | 4 (Herbicidal rate of 70% or more and less than 90%) | 1 (Herbicidal rate of 5% or more and less than 20%) | 4 (Herbicidal rate of 70% or more and less than 90%) | 5 (Herbicidal rate of 90% or more (almost completely withered)) | 5 (Herbicidal rate of 90% or more (almost completely withered)) | 1 (Herbicidal rate of 5% or more and less than 20%) | 5 (Herbicidal rate of 90% or more (almost completely withered)) | 4 (Herbicidal rate of 70% or more and less than 90%) | 3 (Herbicidal rate of 40% or more and less than 70%) | 3 (Herbicidal rate of 40% or more and less than 70%) | 4 (Herbicidal rate of 70% or more and less than 90%) | 3 (Herbicidal rate of 40% or more and less than 70%) | 4 (Herbicidal rate of 70% or more and less than 90%) | 0 (Herbicidal rate of 5% or less (almost no effect)) | 0 (Herbicidal rate of 5% or less (almost no effect)) | 0 (Herbicidal rate of 5% or less (almost no effect)) | 0 (Herbicidal rate of 5% or less (almost no effect)) | Herbicidal effect by soil treatment, K: Italian ryegrass (Italian ryegrass [5]): 4 (Herbicidal rate of 70% or more and less than 90%); Herbicidal effect by soil treatment, R: persian speedwell (persian speedwell [8]): 4 (Herbicidal rate of 70% or more and less than 90%); Herbicidal effect by soil treatment, G: green foxtail (green foxtail [11]): 4 (Herbicidal rate of 70% or more and less than 90%); Herbicidal effect by soil treatment, F: southern crabgrass (southern crabgrass [12]): 4 (Herbicidal rate of 70% or more and less than 90%); Herbicidal effect by soil treatment, I: wild oat (wild oat [13]): 0 (Herbicidal rate of 5% or less (almost no effect)); Herbicidal effect by soil treatment, H: barnyard grass (barnyard grass [14]): 1 (Herbicidal rate of 5% or more and less than 20%); Herbicidal effect by soil treatment, J: blackgrass (blackgrass [17]): 0 (Herbicidal rate of 5% or less (almost no effect)); Herbicidal effect by soil treatment, P: chickweed (chickweed [20]): 3 (Herbicidal rate of 40% or more and less than 70%); Herbicidal effect by soil treatment, L: windgrass (windgrass [22]): 0 (Herbicidal rate of 5% or less (almost no effect)); Herbicidal effect by soil treatment, M: velvetleaf (velvetleaf [23]): 0 (Herbicidal rate of 5% or less (almost no effect)); Herbicidal effect by soil treatment, O: lambsquarters (lambsquarters [24]): 4 (Herbicidal rate of 70% or more and less than 90%); Herbicidal effect by soil treatment, N: redroot pigweed (redroot pigweed [25]): 3 (Herbicidal rate of 40% or more and less than 70%)
2 | COCc1ccc(-c2sc3cc(F)c(F)cc3c2-c2c(O)c(C)nn(C)c2=O)cc1 [5-009] | 0 (Herbicidal rate of 5% or less (almost no effect)) | 3 (Herbicidal rate of 40% or more and less than 70%) | 0 (Herbicidal rate of 5% or less (almost no effect)) | 4 (Herbicidal rate of 70% or more and less than 90%) | 5 (Herbicidal rate of 90% or more (almost completely withered)) | 5 (Herbicidal rate of 90% or more (almost completely withered)) | 4 (Herbicidal rate of 70% or more and less than 90%) | 3 (Herbicidal rate of 40% or more and less than 70%) | 3 (Herbicidal rate of 40% or more and less than 70%) | 3 (Herbicidal rate of 40% or more and less than 70%) | 2 (Herbicidal rate of 20% or more and less than 40%) | 2 (Herbicidal rate of 20% or more and less than 40%) | 3 (Herbicidal rate of 40% or more and less than 70%) | 5 (Herbicidal rate of 90% or more (almost completely withered)) | 3 (Herbicidal rate of 40% or more and less than 70%) | 0 (Herbicidal rate of 5% or less (almost no effect)) | 0 (Herbicidal rate of 5% or less (almost no effect)) | 0 (Herbicidal rate of 5% or less (almost no effect)) | K: Italian ryegrass, herbicidal effect grade (Italian ryegrass [5]): 0 (Herbicidal rate of 5% or less (almost no effect)); R: persian speedwell, herbicidal effect grade (persian speedwell [8]): 5 (Herbicidal rate of 90% or more (almost completely withered)); G: green foxtail, herbicidal effect grade (green foxtail [11]): 2 (Herbicidal rate of 20% or more and less than 40%); F: southern crabgrass, herbicidal effect grade (southern crabgrass [12]): 0 (Herbicidal rate of 5% or less (almost no effect)); I: wild oat, herbicidal effect grade (wild oat [13]): 0 (Herbicidal rate of 5% or less (almost no effect)); H: barnyard grass, herbicidal effect grade (barnyard grass [14]): 0 (Herbicidal rate of 5% or less (almost no effect)); J: blackgrass, herbicidal effect grade (blackgrass [17]): 0 (Herbicidal rate of 5% or less (almost no effect)); P: chickweed, herbicidal effect grade (chickweed [20]): 5 (Herbicidal rate of 90% or more (almost completely withered)); L: windgrass, herbicidal effect grade (windgrass [22]): 0 (Herbicidal rate of 5% or less (almost no effect)); M: velvetleaf, herbicidal effect grade (velvetleaf [23]): 2 (Herbicidal rate of 20% or more and less than 40%); O: lambsquarters, herbicidal effect grade (lambsquarters [24]): 4 (Herbicidal rate of 70% or more and less than 90%); N: redroot pigweed, herbicidal effect grade (redroot pigweed [25]): 4 (Herbicidal rate of 70% or more and less than 90%)
